Test results published in article PMC11484808, “Streamlined analysis of drug targets by proteome integral solubility alteration indicates organ-specific engagement” (Nature Communications, 2024).

Target: T1, Pirin (Homo sapiens, UniProt O00625)
T1 construct: gene PIR; recombinant human pirin (Abcam, ab123170)
T1 sequence (O00625 1-290): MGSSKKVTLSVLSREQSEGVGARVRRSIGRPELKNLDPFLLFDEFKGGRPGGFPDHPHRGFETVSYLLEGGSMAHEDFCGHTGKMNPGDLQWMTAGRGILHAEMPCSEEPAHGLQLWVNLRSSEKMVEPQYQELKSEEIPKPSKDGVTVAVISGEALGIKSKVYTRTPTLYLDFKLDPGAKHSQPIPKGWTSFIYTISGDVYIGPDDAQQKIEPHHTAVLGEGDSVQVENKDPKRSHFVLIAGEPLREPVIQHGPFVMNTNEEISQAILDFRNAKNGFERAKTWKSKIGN
Assay: SPR (Biacore T200), steady state; also TPP-PISA stabilization in extracts
Type: binding

SMILES: CC(C)Cc1ccc(C(C)C(=O)O)cc1 (stereo not shown) [Ibuprofen]
- Kd: ~546 µM
